From patent US20240264169A1, “METHOD FOR THE QUANTIFICATION OF THE ACTIVATION STATE OF G-PROTEIN-COUPLED RECEPTORS IN A HUMAN BIOLOGICAL SAMPLE” (ALDA S.R.L., priority 2021, published 2024) come the findings set out here.

Values joined by “and” are separate entries in the source; they are usually repeats but may differ in a detail not shown here. Identical values can stand only once.

Format in all cases: cell-based
The test system of test [1] is human neutrophils. Kind of test: Neutrophil morphology upon fixation (spherical vs polarized). The protocol: (§1) Precisely this last aspect, however, offers added value in monitoring the interaction of the receptor with β-Arrestin. Indeed, in this scenario, the maximum interaction value between these two proteins is recorded 8 to 12 minutes after the interleukin stimulus. The measurement of the activation state occurs within a defined time window, the beginning of which coincides with the time of sampling (FIG. 1a). By subjecting the blood aliquots to a stasis under controlled conditions, it is possible to obtain a homogeneous activation state among the neutrophils in the control sample, estimated by quantifying the amount of receptor that is bound to β-Arrestin at the time of fixation. […] The amount of activation is obtained by difference with the basal state, which corresponds to the amount of desensitized receptor found after the same time interval in each experiment. The correlation between FRET signal intensity and morphology (FIG. 4c) allows us to assess the effectiveness of the inhibitor: the change in morphology from spherical to polarized in the presence of high FRET, indicates the persistence of a G-protein pathway-mediated signal. In contrast, the presence of high FRET in perfectly spherical cells (indistinguishable from those observed in the control aliquot), is an indication of high desensitization of the receptor by β-Arrestins, and thus the inhibitor is able to promote deactivation of the receptor, with the effect of a drastic reduction in G-protein-mediated signaling.
Thus, the treatment with allosteric inhibitors generates high receptor desensitization. However, if IL-8 treatment is conducted in the presence of allosteric inhibitor, neutrophil morphology is maintained spherical even under stimulated conditions. […] In the quiescent or competitive inhibition condition, the neutrophil consistently retains a spherical morphology.
The most striking difference between the condition in which the sample is treated with IL-8 and the condition in which the sample is pretreated with inhibitor and then subjected to the IL-8 stimulus concerns morphology. […]

The test system of test [2] is human neutrophils. Nature of the test: Cell count after treatment of blood sample. From the text:
Another aspect that strongly distinguishes the sample activated with IL8 alone and the IL8_+_navarixin sample is the cell count after treatment.

The target in another test is T1, CXCR1-GaI interaction (Homo sapiens, UniProt P25024).
T1 construct: expression and localization of endogenous CXCR1 protein; endogenous in cells; host or cells: human neutrophils
T1 sequence (P25024 1-350): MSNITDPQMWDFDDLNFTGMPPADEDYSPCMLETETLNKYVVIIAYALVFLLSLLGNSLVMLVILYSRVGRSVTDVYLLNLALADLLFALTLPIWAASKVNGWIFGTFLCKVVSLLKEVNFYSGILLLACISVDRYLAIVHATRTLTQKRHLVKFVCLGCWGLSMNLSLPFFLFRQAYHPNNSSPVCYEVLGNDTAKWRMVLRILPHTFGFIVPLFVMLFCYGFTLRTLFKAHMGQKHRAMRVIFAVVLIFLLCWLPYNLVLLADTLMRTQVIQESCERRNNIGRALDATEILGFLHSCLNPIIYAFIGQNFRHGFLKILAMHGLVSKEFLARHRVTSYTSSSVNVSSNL
Nature of the test: FRET-FLIM analysis of the CXCR1-GaI interaction pair. The settings on record: in the presence of IL-8 (10 nM). On the procedure: The receptor activation status was measured through the quantification of CXCR1-GaI and CXCR1-Arrestin interactions. […] In this circumstance, the minimum value of FRET is assumed, which serves as an internal control.

The target in another test is T2, CXCR1//ArrB interaction (Homo sapiens, UniProt P25024).
T2 construct: expression and localization of endogenous CXCR1 protein; endogenous in cells; host or cells: human neutrophils in venous blood aliquots
T2 sequence (P25024 1-350): T1 sequence (P25024 1-350)
Nature of the test: FRET assay (intensity-based acceptor photobleaching) of CXCR1//β-Arrestin interaction on neutrophils.
Source text: Next, the measured FRET efficiency is related to the abundance of the interaction between the donor and acceptor probe within each pixel of the image. Detection of the FRET signal consists of a precise estimate of the fluorescent emission (FD) intensity or emission decay rate (<τ>) of the donor probe. The quantization of FD in a biological sample appears to be inexpensive in terms of complexity and cost of the instrumentation required for analysis. […] Below is the formula used to calculate the FRET (pixel by pixel) efficiency shown in the images reported in this study:
as §1, with “signal.” for “signal. In contrast, the presence of high FRET in perfectly spherical cells (indistinguishable from those observed in the control aliquot), is an indication of high desensitization of the receptor by β-Arrestins, and thus the inhibitor is able to promote deactivation of the receptor, with the effect of a drastic reduction in G-protein-mediated signaling.”
Next, the FRET assay for measuring the CXCR1//ArrB interaction on neutrophils was repeated, operating in triplicate (FIG. 4). A first control sample, CTRL-DMSO, corresponds to the sample set at 30 minutes; this time is required for neutrophils to return to a resting state after mechanical activation due to handling. […] Values reported refer to the measurements on 15 neutrophil cells of donor fluorophore de-quenching following acceptor photo-bleaching, obtained by the INTENSITY-BASED ACCEPTOR PHOTOBLEACHING approach (FIG. 7 and Table 1).
The CTRL of each triplicate consists of a sister sample subjected to the same treatment conditions unless drug addition. Exclusively for the time zero sample, fixation was carried out at about one minute after sampling, and the analysis reported high FRET probably due to heterologous desensitization. For all remaining samples, fixation was performed at 30 minutes after sampling, an interval of time during which the drug was allowed to act, directly added to the tube of each treated sample.

For test [3], the target named is T3, CXCR1-βArrestin2 interaction (Homo sapiens, UniProt P25024).
T3 construct: expression and localization of endogenous CXCR1 protein; endogenous in cells; host or cells: human neutrophils in venous blood aliquots
T3 sequence (P25024 1-350): T1 sequence (P25024 1-350)
Nature of the test: FRET-FLIM donor probe lifetime measurement, anti-CXCR1 donor / anti-βArrestin2 acceptor, neutrophils. As to conditions: Reparixin 100 μg/ml; one value per cell (3 cells); Levenberg-Marquardt fitting; Control 2.57-2.63, Donor only 2.64-2.67.
Source text: The fitting model used is bi-exponential and the measurement is repeated for each individual neutrophil: a global decay curve consisting of the summation of the curves recorded in all the pixels that make up the analyzed cell is generated for each of them. The rate of decay of the fluorescence intensity of the total donor population (bound and unbound receptor) is of the exponential type and follows the trend described by the formula:
The decay acquired in each region of interest (ROI) corresponds to the lifetime obtained from the cumulative histogram consisting of the summation of all pixels contained in the ROL The histogram is interpolated by bi-exponential fitting, and the lifetime calculated on the two components (A1 and A2) with the following equation:
The expression used to calculate the FRET efficiency by using the FLIM technique is as follows:
where tD is the absolute donor lifetime, measured in a sample containing only the donor probe, and tD-A is the donor lifetime in a sample subjected to the same condition, in which both donor and acceptor probes are present.
To correctly interpret the following graph (FIG. 8b), remember that the presence of interaction induces a lowering of the donor probe lifetime; this lowering is quantified by the slope of the decay curve, which corresponds to the donor probe lifetime (τ). The value of τ can be derived numerically from the nonlinear fitting of the decay curve.
The Levenberg-Marquardt algorithm, which is based on the method of least squares, was used for nonlinear fitting of the recorded decay curves.
The values of r extrapolated from the nonlinear fitting by using the Levenberg-Marquardt algorithm were further verified using the maximum likelihood estimation (MLE) method, which allows for greater accuracy in evaluating the parameters obtained from the statistical distribution of photonic phenomena (such as the decay of a fluorophore's emission), as these phenomena are generally governed by a Poissonian distribution. The values shown in the table are those calculated exclusively by the Levenberg-Marquardt algorithm.

Setting [4] is: IL-8 treatment in the presence of allosteric inhibitor.
The mark [5] stands for this setting: REPARIXIN 100 ugmL-1, 30 min, 15 neutrophil cells, each column one of triplicate samples.

Take interleukin-8 [IL-8]: the neutrophil morphology result with human neutrophils [1] (IL-8 treatment, inhibitor absent) is on record as “polarized”. Also, the “cells found at the time of fixation relative to control” value in the test with human neutrophils [2] (sample stimulated with IL-8 alone) is recorded as “about 20%”. In addition, the “signal lifetime versus non-activated control” value in the test with CXCR1-GaI interaction is given as “decrease in signal lifetime”. Further, in the test with CXCR1//ArrB interaction (IL-8 stimulation, in presence and absence of allosteric modulator), the “amount of receptor in the desensitized state (in complex with b-Arrestin2)” value was “significant increase”. For the same compound, in the test with CXCR1//ArrB interaction (after the interleukin stimulus), the “time of maximum receptor-β-Arrestin interaction after stimulus” value lay in the range of 8 to 12 min.

Consider `CC[C@@H](Nc1c(Nc2cccc(C(=O)N(C)C)c2O)c(=O)c1=O)c1ccc(C)o1` [Navarixin], for which the neutrophil morphology result in the test with human neutrophils [1] (setting [4]) was “spherical”. Moreover, in the test with human neutrophils [2] (sample pretreated with inhibitor, then stimulated with IL-8), the “number of cells compared to control” value is given as “same number of cells”.

For `CC(C)Cc1ccc([C@@H](C)C(=O)NS(C)(=O)=O)cc1` [Reparixin], in the test on human neutrophils [1] (setting [4]), the neutrophil morphology result is given as “spherical”. For the same compound, the “FRET (donor de-quenching after acceptor photobleaching), Mean” value at CXCR1//ArrB interaction (setting [5]) is 32.35 and 27.67 and 32.60. In addition, the “FRET (donor de-quenching after acceptor photobleaching), Median” value at CXCR1//ArrB interaction (setting [5]) is 38.96 and 21.92 and 35.03. The “FRET in analyzed cells” value at CXCR1//ArrB interaction (Reparixin 40 ug/ml, two of the three samples) is “many cells with FRET values equal to the control”; at CXCR1//ArrB interaction (highest concentration of Reparixin (100 μg/mL), 30 min), “high in many cells”. On CXCR1//ArrB interaction (combined treatment IL-8 + allosteric inhibitor), the “FRET versus control (interaction with β-Arrestins)” value is reported as “higher than control”. Also, the “τ (donor probe lifetime)” value in test [3] was 2.05 and 2.12 and 2.1.
